In one data set the test system is Pseudomonas aeruginosa. The data set can be described thus: Antibacterial activity against Pseudomonas aeruginosa KCTC 1637 assessed as reduction in bacterial growth incubated for 24 hrs by CLSI based broth dilution method. It is filed as functional. The following applies: read-out: MIC100.
The test system of data set [1] is Candida albicans. The data set can be described thus: Antifungal activity against Candida albicans KCTC 7121 assessed as reduction in fungal growth incubated for 24 hrs by CLSI based broth dilution method. As to conditions: read-out: MIC100. It is filed as functional.
Data set [2] deals with Staphylococcus aureus. The data set can be described thus: Antibacterial activity against Staphylococcus aureus KCTC 1621 assessed as reduction in bacterial growth incubated for 24 hrs by CLSI based broth dilution method. It is filed as functional. The following applies: read-out: MIC100.
A further data set concerns Bacillus subtilis. The data set can be described thus: Antibacterial activity against Bacillus subtilis KCTC 3068 assessed as reduction in bacterial growth incubated for 24 hrs by CLSI based broth dilution method. The class given is functional. The following applies: read-out: MIC100.
The next data set deals with Salmonella typhimurium. The data set can be described thus: Antibacterial activity against Salmonella typhimurium KCTC 1926 assessed as reduction in bacterial growth incubated for 24 hrs by CLSI based broth dilution method. The class given is functional, Salmonella enterica subsp. enterica serovar Typhimurium. The following applies: Salmonella enterica, read-out: MIC100.

Data set [3] deals with Staphylococcus aureus. The data set can be described thus: Antibacterial activity against methicillin-resistant Staphylococcus aureus CCARM 3090 assessed as reduction in bacterial growth incubated for 24 hrs by CLSI based broth dilution method. It is filed as functional. The following applies: read-out: MIC100.
The nature of data set [4]: Antibacterial activity against multidrug-resistant Pseudomonas aeruginosa CCARM 2109 assessed as reduction in bacterial growth incubated for 24 hrs by CLSI based broth dilution method. The class given is functional. The following applies: read-out: MIC100.
The test system of data set [5] is Erythrocyte. The data set can be described thus: Hemolytic activity in sheep RBC assessed as reduction in hemoglobin incubated for 1 hr. The class given is ADME, cell-based, Ovis aries.
The subject of data set [6] is Erythrocyte. The data set can be described thus: Hemolytic activity in sheep RBC assessed as reduction in hemoglobin at 256 uM incubated for 1 hr. The class given is ADME, cell-based, Ovis aries.
The test system of data set [7] is Staphylococcus aureus. The data set can be described thus: Antibacterial activity against methicillin-resistant Staphylococcus aureus CCARM 3095 assessed as reduction in bacterial growth incubated for 24 hrs by CLSI based broth dilution method. The class given is functional. As to conditions: read-out: MIC100.
The nature of data set [8]: Cytotoxicity against mouse RAW264.7 cells assessed as reduction in cell viability at 10 uM incubated for 24 hrs by MTT assay. It is filed as cell-based. As to conditions: read-out: INH.
Data set [9] has as its system Escherichia coli. The data set can be described thus: Antibacterial activity against Escherichia coli KCTC 1682 assessed as reduction in bacterial growth incubated for 24 hrs by CLSI based broth dilution method. It is filed as functional. The following applies: read-out: MIC100.
The nature of data set [10]: Therapeutic index, ratio of HC10 for sheep RBC to geometric mean MIC for yeast. The following applies: sheep red blood cells, read-out: TI. It is filed as toxicity.
Data set [11] relates to Bacteria. The data set can be described thus: Antibacterial activity against Gram positive bacteria assessed as reduction in bacterial growth incubated for 24 hrs by CLSI based broth dilution method. It is filed as functional. The following applies: read-out: MIC100.
The next data set relates to Enterococcus faecium. The data set can be described thus: Antibacterial activity against vancomycin-resistant Enterococcus faecium ATCC 51559 assessed as reduction in bacterial growth incubated for 24 hrs by CLSI based broth dilution method. It is filed as functional. The following applies: read-out: MIC100.
Data set [12] can be described thus: Cytotoxicity against mouse NIH/3T3 cells assessed as reduction in cell viability at 20 uM incubated for 24 hrs by MTT assay. As to conditions: NIH/3T3 cells, read-out: INH. The class given is cell-based, NIH3T3.
The nature of data set [13]: Cytotoxicity against mouse RAW264.7 cells assessed as reduction in cell viability at 20 uM incubated for 24 hrs by MTT assay. As to conditions: read-out: INH. It is filed as cell-based.
The subject of data set [14] is Bacteria. The data set can be described thus: Antibacterial activity against Gram negative bacteria assessed as reduction in bacterial growth incubated for 24 hrs by CLSI based broth dilution method. It is filed as functional. The following applies: read-out: MIC100.
The nature of data set [15]: Therapeutic index, ratio of HC10 for sheep RBC to geometric mean MIC for gram positive bacteria. The class given is toxicity. As to conditions: sheep red blood cells, read-out: TI.
The next data set has as its system Saccharomyces cerevisiae. The data set can be described thus: Antifungal activity against yeast assessed as reduction in fungal growth incubated for 24 hrs by CLSI based broth dilution method. It is filed as functional. The following applies: read-out: MIC100.
The nature of data set [16]: Therapeutic index, ratio of HC10 for sheep RBC to geometric mean MIC for gram negative bacteria. The class given is toxicity. As to conditions: sheep red blood cells, read-out: TI.
The test system of data set [17] is Candida albicans. The data set can be described thus: Antifungal activity against Candida albicans KCTC 7965 assessed as reduction in fungal growth incubated for 24 hrs by CLSI based broth dilution method. The following applies: read-out: MIC100. It is filed as functional.
Data set [18] can be described thus: Cytotoxicity against mouse NIH/3T3 cells assessed as reduction in cell viability at 10 uM incubated for 24 hrs by MTT assay. The class given is cell-based, NIH3T3. The following applies: read-out: INH.
Data set [19] concerns Staphylococcus aureus. The data set can be described thus: Antibacterial activity against methicillin-resistant Staphylococcus aureus CCARM 3089 assessed as reduction in bacterial growth incubated for 24 hrs by CLSI based broth dilution method. It is filed as functional. The following applies: read-out: MIC100.
Data set [20] can be described thus: Hemolytic activity in sheep RBC assessed as reduction in hemoglobin at 64 uM incubated for 1 hr. The class given is ADME, cell-based, Ovis aries, Erythrocyte. The following applies: sheep red blood cells (erythrocytes), read-out: Activity.
The nature of data set [21]: Antibacterial activity against multidrug-resistant Pseudomonas aeruginosa CCARM 2095 assessed as reduction in bacterial growth incubated for 24 hrs by CLSI based broth dilution method. The class given is functional. The following applies: read-out: MIC100.
Data set [22] has as its system Staphylococcus epidermidis. The data set can be described thus: Antibacterial activity against Staphylococcus epidermidis KCTC 1917 assessed as reduction in bacterial growth incubated for 24 hrs by CLSI based broth dilution method. The class given is functional. As to conditions: read-out: MIC100.
Data set [23] is described as follows: Retention time of the compound by RP-HPLC method. It is filed as physicochemical.
Data set [24] concerns RAW264.7. The data set can be described thus: Antiinflammatory activity in mouse RAW264.7 cells assessed as suppression of LPS binding by measuring LPS-FITC aggregation at 10 uM pretreated with LPS for 1 hr followed by compound addition and measured after 30 mins by flowcytometry analysis (reference value: 67.93 %). The class given is functional. The following applies: 0.5 h.

In data set [25] the test system is RAW264.7. The data set can be described thus: Antiinflammatory activity against mouse RAW264.7 cells assessed as reduction in LPS-induced nitrite level at 5 uM incubated for 24 hrs by Griess reagent based assay relative to control. It is filed as functional.
For data set [26], the system named is RAW264.7. The data set can be described thus: Antiinflammatory activity in mouse RAW264.7 cells assessed as neutralization of LPS binding by measuring LPS-FITC aggregation at 10 uM pretreated with LPS for 1 hr followed by compound addition and measured after 1 hr by flowcytometry analysis (reference value: 48.12 %). The class given is functional.
In another data set the test system is Lipopolysaccharide (LPS). The data set can be described thus: Inhibition of Escherichia coli O111:B4 LPS aggregation assessed as increase in FITC-LPS dissociation at 2 uM by spectrofluorometry.
Data set [27] concerns RAW264.7. The data set can be described thus: Antiinflammatory activity against mouse RAW264.7 cells assessed as reduction in LPS-induced TNFalpha level at 10 uM incubated for 24 hrs by […] relative to control. The class given is functional.
For data set [28], the system named is Escherichia coli. The data set can be described thus: Bacteriostatic activity against Escherichia coli KCTC 1682 assessed as reduction in colony forming unit at 0.5 times MIC measured for 12 hrs by time kill assay. It is filed as functional, organism-based.
The subject of data set [29] is Escherichia coli. The data set can be described thus: Bacteriostatic activity against Escherichia coli KCTC 1682 assessed as reduction in colony forming unit at 0.5 times MIC measured for 24 hrs by time kill assay. The class given is functional.

Activity calls are given as the source filed them. No cut-off for these calls is given here. Where only a bound is given, the exact number is not on record here.

As for H-FWQLVPLAIKIYRAWKRR-NH2, the MIC turned out to be 16 µM in the data set with Pseudomonas aeruginosa; 16 µM with Candida albicans [1]; 8 µM in the data set on Staphylococcus aureus [2]; 8 µM with Bacillus subtilis; 8 µM in the data set on Salmonella typhimurium; 16 µM in the data set on Staphylococcus aureus [3]. In addition, the MIC amounted to 32 µM in data set [4]; 32 µM in the data set on Staphylococcus aureus [7]; 16 µM with Escherichia coli [9]; 20.5 µM with Bacteria [11]; 32 µM with Enterococcus faecium; 20.8 µM with Bacteria [14]. Moreover, the MIC with Saccharomyces cerevisiae amounted to 16 µM; in the data set with Candida albicans [17] it was 16 µM; in the data set on Staphylococcus aureus [19], 32 µM; in data set [21] it was 32 µM; in [22] it was 16 µM. Moreover, the HC10 in the data set with Erythrocyte [5] was determined as 1.3 µM. Moreover, the Activity result in the data set with Erythrocyte [6] is recorded as “Non-Toxic”. Moreover, the cytotoxicity at 24 h, 10 µM in data set [8] and in data set [18] was 40% each time. In addition, the selectivity ratio in data set [10], in [15] and in [16] was 0.1 throughout. For the same compound, the cytotoxicity at 24 h, 20 µM in data set [12] and in [13] was below 10% in each case. Moreover, in [20], the hemolysis at 1 h, 64 µM amounted to 100%. Besides, the Retention_time in data set [23] worked out at 29 min.
H-LAIKIYRAWKRR-NH2: the MIC in the data set on Pseudomonas aeruginosa came to 4 µM; in the data set with Candida albicans [1], 16 µM; in the data set with Staphylococcus aureus [2], 8 µM; in the data set on Bacillus subtilis, 8 µM; in the data set on Salmonella typhimurium it was 8 µM; with Staphylococcus aureus [3] it was 32 µM. Moreover, the MIC in data set [4] worked out at 16 µM; with Staphylococcus aureus [7], 32 µM; with Escherichia coli [9] it was 16 µM; with Bacteria [11], 21.1 µM; in the data set on Enterococcus faecium, 32 µM; in the data set with Bacteria [14], 15.2 µM. Moreover, the MIC in the data set on Saccharomyces cerevisiae was 12 µM; in the data set with Candida albicans [17] it was 8 µM; with Staphylococcus aureus [19] it was 32 µM; in [21], 32 µM; in data set [22], 4 µM. Moreover, the Activity with RAW264.7 [24] is 59.24%; with RAW264.7 [26] it was 42.35%; in the data set with Erythrocyte [6] it was “Non-Toxic”. Moreover, in the data set on RAW264.7 [25], the inhibition at 5 µM was below 10%. Moreover, the inhibition result in the data set with Lipopolysaccharide (LPS) is “Active”. Besides, the HC10 in the data set with Erythrocyte [5] is above 256 µM. Moreover, the selectivity ratio in data set [10] worked out at 42.7; in data set [15], 243; in data set [16], 33.7. The cytotoxicity at 24 h, 20 µM in data set [12] and in data set [13] was below 10% throughout. The compound further yielded a Retention_time in data set [23] of 16.4 min. Moreover, in the data set with RAW264.7 [27], the inhibition at 10 µM was below 10%.
Consider `O=C(N[C@H](CO)[C@H](O)c1ccc([N+](=O)[O-])cc1)C(Cl)Cl`, for which the outcome with Escherichia coli [28] was Active. Besides, the outcome in the data set with Escherichia coli [29] was inactive.

The values are drawn from ChEMBL document CHEMBL4765389, “Antimicrobial and anti-inflammatory activities of short dodecapeptides derived from duck cathelicidin: Plausible mechanism of bactericidal action and endotoxin neutralization” (Eur J Med Chem, 2020).
